Article PMC11642016 (International Journal of Molecular Sciences, 2024)
Where “and” joins values, the source holds several entries; their conditions need not be identical. Equal values may be shown once. Read-outs that look alike come from different tables or passages of the source.

Experiments:
PANC-1 cells = experiment: CellTiter-Glo luminescent cell viability assay, PANC-1
[1] = CellTiter-Glo luminescent cell viability assay, primary fibroblasts; conditions: human, primary skin fibroblasts (non-tumorous), Primer fibroblast Cell viability (% of controll), 72 h, dose–response, individual replicates
[2] = system: non-tumorous primary fibroblast cells; experiment: as above; conditions: for Primer fibroblast Cell viability (% of controll): dose–response, individual replicates; for IC50: Homo sapiens, Fibroblast
[3] = CellTiter-Glo cell viability assay, HEK293T CLPP−/− (ClpP dependence); conditions: human, HEK293T CLPP−/− cells, HEK293T CLPP-/- Cell viability (% of controll), 72 h, dose–response, individual replicates;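 also: CellTiter-Glo luminescent signal read on a microplate reader once HEK293T CLPP−/− cells had been exposed to compounds for 72 h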
Method: (§1) Primary fibroblast cultures were prepared from human skin biopsies and maintained in DMEM supplemented with 10% FBS, 1% penicillin-streptomycin, and 1% MEM Non-Essential Amino Acids Solution (Thermo Fisher Scientific). […] All cell lines were cultured in a humidified atmosphere at 37 °C and 5% CO2, passaged twice a week, and the experiments were performed on cells between passage 5 and 15. The cell lines were routinely screened for the absence of mycoplasma infection (DAPI staining).
(§2) The effects of the synthesized compounds on cell viability were measured using the CellTiter-Glo® luminescent cell viability assay (Promega, Madison, WI, USA), according to the manufacturer’s instructions. Briefly, cells were seeded onto a flat-bottomed, white 96-well plate (BRANDplates, cat. no.: 781965)), with the following densities: PANC-1: 750 cells/well, Fadu: 2000 cells/well, primary fibroblasts: 2000 cells/well, HEK293T WT: 1000 cells/well, HEK293T CLPP^−/−: 2500 cells/well. After seeding, cells were incubated for a further 48 h before treatment. Cells were treated with the compounds for 72 h. Three concentrations (25.0 µM; 8.3 µM; 2.8 µM) were applied during the initial cell viability screening, while for the determination of dose–response curves, 1.5-fold serially diluted compound concentrations were applied (range: 26 µM–0.7 µM). After treatment, the luminescence signal was recorded using a microplate reader (BioTek Synergy 2 Multi-Mode Reader, BioTek, Winooski, VT, USA).
(§3) Data analysis was performed using GraphPad Prism 9.5.0 software (GraphPad Software, San Diego, CA, USA). […] The dose–response curves were generated by four-parameter nonlinear regression, and the IC50 values were determined as the means ± SEM of the best-fit values of 3 independent measurements. The R^2 values were consistently above 0.93, indicating a strong fit of the model to the experimental data (Supplementary S.89). […] Dunnett’s post hoc test was applied to adjust for multiple comparisons, minimizing the likelihood of false positive results. Assumptions for ANOVA, including normality (assessed via QQ plots) and homogeneity of variance (tested using the Brown–Forsythe test), were verified. The following significance levels were applied: * p < 0.05, ** p < 0.01, *** p < 0.001, **** p < 0.0001. […] The tumor selectivity of the compounds was quantitatively characterized by the selectivity index (SI). This parameter was calculated as the ratio of the average best-fit IC50 value for primary fibroblasts and the best-fit IC50 value for the corresponding tumor cells (PANC-1 or Fadu).

HEK293T CLPP^−/− cells = experiment: as above; conditions: 72 h; for HEK293T CLPP-/- Cell viability (% of controll): individual replicates
Method: as §1, §2, §3

With CNCC#Cc1cccc(CN2C(=O)C3=C(CCN(Cc4ccc(-n5cc(-c6ccccc6)nn5)cc4)C3)N3CCN=C23)c1 [38b] the “PANC-1 Cell viability (% of controll)” value (PANC-1 cells; 26 μM, 72 h, dose–response, individual replicates) was 0 % of controll, the viability at 2.8 µM (PANC-1 cells; Homo sapiens, PANC-1, 72 h, read-out: Cell Viability (% of Control) 2.8 µM, PANC-1, 2.8 µM, 72 h, second-set screening, mean ± SD, n = 2) was 6 ± 6% and the viability at 8.3 µM (PANC-1 cells; Homo sapiens, PANC-1, 72 h, read-out: Cell Viability (% of Control) 8.3 µM, PANC-1, 8.3 µM, 72 h, second-set screening, mean ± SD, n = 2) was 0%. For the same molecule, the viability at 25 µM (PANC-1 cells; Homo sapiens, PANC-1, 72 h, read-out: Cell Viability (% of Control) 25 µM, PANC-1, 25 µM, 72 h, second-set screening, mean ± SD, n = 2) was 0%, the IC50 (PANC-1 cells; Homo sapiens, PANC-1, 72 h, read-out: IC50 Value ± SEM PANC-1, 72 h treatment, best-fit values, n = 3) was 2.5 ± 0.23 µM and the viability at 0.7 µM (PANC-1 cells; Homo sapiens, PANC-1, 72 h, read-out: PANC-1 Cell viability (% of controll), 0.7 μM, 72 h, dose–response, individual replicates) was 110%. The viability at 1 µM (PANC-1 cells; Homo sapiens, PANC-1, 72 h, read-out: PANC-1 Cell viability (% of controll), 1 μM, 72 h, dose–response, individual replicates) was 110%, the viability at 1.5 µM (PANC-1 cells; Homo sapiens, PANC-1, 72 h, read-out: PANC-1 Cell viability (% of controll), 1.5 μM, 72 h, dose–response, individual replicates) was 109% and the viability at 2.3 µM (PANC-1 cells; Homo sapiens, PANC-1, 72 h, read-out: PANC-1 Cell viability (% of controll), 2.3 μM, 72 h, dose–response, individual replicates) was 81%. It also gave a viability at 5.1 µM (PANC-1 cells; Homo sapiens, PANC-1, 72 h, read-out: PANC-1 Cell viability (% of controll), 5.1 μM, 72 h, dose–response, individual replicates) of 0%, a viability at 7.7 µM (PANC-1 cells; Homo sapiens, PANC-1, 72 h, read-out: PANC-1 Cell viability (% of controll), 7.7 μM, 72 h, dose–response, individual replicates) of 0% and a viability at 17.3 µM (PANC-1 cells; Homo sapiens, PANC-1, 72 h, read-out: PANC-1 Cell viability (% of controll), 17.3 μM, 72 h, dose–response, individual replicates) of 0%. The viability at 26 µM (PANC-1 cells; Homo sapiens, PANC-1, 72 h, read-out: PANC-1 Cell viability (% of controll), 26 μM, 72 h, dose–response, individual replicates) was 0%, the IC50 (PANC-1 cells; Homo sapiens, PANC-1, read-out: PANC-1 IC50 values, Mean, mean of independently fitted replicate IC50 values (Supplement S.6)) was 2.45 µM and the “Selectivity Index (SI) Fibroblast/PANC-1” value (PANC-1 cells; ratio of mean best-fit IC50 for primary fibroblasts and best-fit IC50 for PANC-1) was 1.8. For the same molecule, the viability at 72 h, 0.7 µM ([1]; 0.7 μM) was 103%, the viability at 72 h, 1 µM ([1]; 1 μM) was 112% and the viability at 72 h, 1.5 µM ([1]; 1.5 μM) was 106%. It also gave a viability at 72 h, 2.3 µM ([1]; 2.3 μM) of 116%, a viability at 72 h, 3.4 µM ([1]; 3.4 μM) of 112% and a viability at 72 h, 5.1 µM ([1]; 5.1 μM) of 6%. It also gave a viability at 72 h, 7.7 µM ([1]; 7.7 μM) of 0%, a viability at 72 h, 17.3 µM ([1]; 17.3 μM) of 0% and a viability at 72 h, 26 µM ([1]; 26 μM) of 0%. For the same molecule, the “Primer fibroblast Cell viability (% of controll)” value ([2]; 0.7 μM, 72 h) was 107 % of controll and 109 % of controll, the “Primer fibroblast Cell viability (% of controll)” value ([2]; 1 μM, 72 h) was 117 % of controll and 101 % of controll and the “Primer fibroblast Cell viability (% of controll)” value ([2]; 1.5 μM, 72 h) was 118 % of controll. The “Primer fibroblast Cell viability (% of controll)” value ([2]; 2.3 μM, 72 h) was 107 % of controll, the “Primer fibroblast Cell viability (% of controll)” value ([2]; 3.4 μM, 72 h) was 110 % of controll and 101 % of controll and the “Primer fibroblast Cell viability (% of controll)” value ([2]; 5.1 μM, 72 h) was 5 % of controll and 8 % of controll. The “Primer fibroblast Cell viability (% of controll)” value ([2]; 7.7 μM, 72 h) was 0 % of controll, the “Primer fibroblast Cell viability (% of controll)” value ([2]; 17.3 μM, 72 h) was 0 % of controll and the “Primer fibroblast Cell viability (% of controll)” value ([2]; 26 μM, 72 h) was 0 % of controll. It also gave an IC50 ([2]; 72 h, read-out: IC50 Value ± SEM Primary Fibroblast, 72 h treatment, best-fit values, n = 3) of 4.4 ± 0.23 µM, an IC50 ([2]; read-out: Primary fibroblast IC50 values, Mean, mean of independently fitted replicate IC50 values (Supplement S.6), ONC201 value mathematically estimated from inflection point) of 4.45 µM and a viability at 72 h, 0.4 µM ([3]; 0.4 μM) of 113%. The viability at 72 h, 0.6 µM ([3]; 0.6 μM) was 117%, the viability at 72 h, 1 µM ([3]; 1.0 μM) was 118% and the viability at 72 h, 1.6 µM ([3]; 1.6 μM) was 100%. The viability at 72 h, 6.4 µM ([3]; 6.4 μM) was 0%, the viability at 72 h, 16.25 µM ([3]; 16.25 μM) was 0% and the viability at 72 h, 26 µM ([3]; 26 μM) was 0%. For the same molecule, the “HEK293T CLPP-/- Cell viability (% of controll)” value (HEK293T CLPP^−/− cells; 0.4 μM, dose–response, listed as CZT457, 0.4 µM) was 116 % of controll and 114 % of controll and 119 % of controll, the “HEK293T CLPP-/- Cell viability (% of controll)” value (HEK293T CLPP^−/− cells; 0.6 μM, dose–response, listed as CZT457, 0.6 µM) was 112 % of controll (2×) and 110 % of controll and the “HEK293T CLPP-/- Cell viability (% of controll)” value (HEK293T CLPP^−/− cells; 1.0 μM, dose–response, listed as CZT457, 1 µM) was 112 % of controll and 111 % of controll and 115 % of controll. For the same molecule, the “HEK293T CLPP-/- Cell viability (% of controll)” value (HEK293T CLPP^−/− cells; 1.6 μM, dose–response, listed as CZT457, 1.6 µM) was 107 % of controll and 101 % of controll and 103 % of controll, the “HEK293T CLPP-/- Cell viability (% of controll)” value (HEK293T CLPP^−/− cells; 2.5 μM, dose–response, listed as CZT457, 2.5 µM) was 25 % of controll and 33 % of controll and 32 % of controll and 13 % of controll and the “HEK293T CLPP-/- Cell viability (% of controll)” value (HEK293T CLPP^−/− cells; 4.0 μM, dose–response, listed as CZT457, 4 µM) was 1 % of controll and 0 % of controll. The “HEK293T CLPP-/- Cell viability (% of controll)” value (HEK293T CLPP^−/− cells; 6.4 μM, dose–response) was 0 % of controll, the “HEK293T CLPP-/- Cell viability (% of controll)” value (HEK293T CLPP^−/− cells; 16.25 μM, dose–response) was 0 % of controll and the “HEK293T CLPP-/- Cell viability (% of controll)” value (HEK293T CLPP^−/− cells; 26 μM, dose–response) was 0 % of controll. The IC50 (HEK293T CLPP^−/− cells; Homo sapiens, HEK-293T, read-out: IC50 (µM) HEK293T CLPP^−/−) was 2.1 ± 0.03 µM and the “effect on the viability of HEK293T CLPP^−/− cells” value (HEK293T CLPP^−/− cells; dose–response, compared with HEK293T WT) was “maintained”.
